Source: patent US20240166702A1, “COMPOSITIONS AND METHODS FOR TREATING BREAST CANCER” (Arizona Board of Regents on Behalf of The University of …, priority 2021, published 2024)

Key:
[1] = tested on: WAP-TGFα tumors; assay: NanoString analysis of WAP-TGFα tumors (PanCancer IO 360 Panel); format: in vivo, mouse
Protocol: A. Tumors (n=6 each treatment) from WAP-TGF mice as described in FIG. 1 were embedded and analyzed by NanoString. […] C. Tumors were dissected, lysed, and analyzed for apoptosis by probing for cleaved PARP and PDL1 expression.
C. WAP-TGFα tumors treated with either SNX1.3 or cPTD4 were analyzed for NK cells using an anti-NKp46 antibody. Inset is 20×.
Due to the increased leukocyte infiltration identified by histology of cSNX1.3-treated WAP-TGFα mice, NanoString analysis was performed using a panel that identifies alterations in immune regulators through localized analysis of transcript expression (PanCancer IO 360 Panel). […] These include several immune/inflammatory genes (such as CD2, TLR, CD28, H2-M3, Ly6C1, cytokines, and chemokines) as well as genes that could impact the metastatic potential of the microenvironment (including collagen 11A1 and MM P12). NanoString bioinformatics analysis further identified that these changes could be due to an increase in Cytotoxic T lymphocytes (CTLs) in cSNX1.3-treated samples compared to PTD4 (FIG. 8B). […] Therefore, tumor lysates were prepared and evaluated for apoptosis and a loss of the negative immune checkpoint receptor PDL1 (FIG. 8C). […] These changes could indicate an alteration from an immune-suppressive to an immune-surveilling microenvironment.

[2] = tested on: IL1RL1; assay: RT-PCR analysis of IL1RL1 in MDA-MB-468 cells; format: cell-based, human; conditions: similarly treated MDA-MB-468 cells
Description: A-C. […] A. A gene ontology enrichment bubble plot was produced, and the top 30 enriched GO terms are shown. Color indicates −1*log 10(FDR) for significance of overlap (the higher the more significant). X axis=log odds ratio for genes annotated to that GO term. […] C. RT-PCR analysis of IL1RL1.
A significant impact on the immune response, especially IL-1 dependent pathways was identified (FIG. 12A). IL-1-specific genes were searched and an upregulation in several IL1R genes, including IL1R2, IL1RL1, IL1RL2, IL1RAP and IL1RN (FIG. 12B) were found. […] It is hypothesized that the transient and targeted activation of the IL1/TLR pathway in the tumors may allow for the immune system to become active where previously these tumors were immune suppressive. Triple negative breast cancers with active EGFR pathways are clinically immune suppressive, and it is hypothesized that blocking nEGFR may allow for the utilization of immune targeting to treat these cancers.

[3] = tested on: BT20 cells; format: cell-based, human
Protocol: (§1) B. MDA-MD-468 cells were transduced with an IPTG inducible shEGFR targeted against the 3′ UTR of EGFR. These cells were incubated with IPTG for the indicated number of days and lysates were generated to confirm knock down of EGFR. C. In tandem with B., cells were plated and incubated +/−IPTG for 2 days prior to drug treatment. […] After 5 days of IPTG and 3 days of peptide treatment viability was measured using an MTT assay.
To investigate rt-EGFR, the role of the Sorting Nexins to regulate EGFR trafficking to the lysosome for degradation was investigated. To determine if SNX1 domains could be therapeutically mimicked, three SNX1-based peptides were synthesized, each of which was generated in tandem with a Cell Penetrating Peptide domain (PTD-4) to allow for intracellular penetration^19 (SNX1.1, 1.2 and 1.3, FIG. 2A). The ability of each peptide to reduce cell survival in the triple negative breast cancer cell line BT20 was evaluated.
EGFR activity is known to promote the activity of other RTKs, including those in the EGFR family (HER2, HER3 and HER4) and the c-Met receptor (Puri and Salgia 2008; Linklater et al. 2016). Therefore, the ability of SNX1.3 to inhibit 2D migration was next evaluated, both in response to EGF as well as other migration-inducing ligands. […] Cells were plated on plastic and allowed to migrate into an artificial wound over 12 hours. […] To determine if this inhibitory effect was restricted to EGF-induced migration, the ability of SNX1.3 to impact neuregulin (NRG1) was also tested and hepatic growth factor (HGF)-induced migration. NRG is the ligand for HER3 and HER4, and HGF the ligand for the c-Met receptor, both of which are receptor tyrosine kinases. In addition, soluble hyaluronic acid (HA)-induced migration, the ligand for CD44, was also tested [a non-kinase membrane receptor that induces migration (Louderbough, Lopez, and Schroeder 2010)]. […] Note that all receptors undergo endocytosis, with the RTKs primarily undergoing clathrin-dependent endocytosis, while CD44 endocytosis is clathrin-independent (Dutta and Donaldson 2015).

[4] = tested on: MDA-MB-468 cells with reduced EGFR; assay: MTT viability in MDA-MB-468 cells with shRNA knock down of EGFR; format: cell-based, human; conditions: shRNA to the 3′UTR of EGFR, 5 days IPTG, 3 days peptide, MTT assay
Protocol: as §1
(§2) No effect on CHO cells that lack EGFR expression was observed.

[5] = tested on: CHO cells; assay: Effect on CHO cells that lack EGFR expression; format: cell-based
Description: as §2

[6] = tested on: EGFR dependent mammary gland tumors of WAP-TGFα mice; assay: Tumor regression study in WAP-TGFα transgenic mice; format: in vivo, mouse
Description: Mice were bred continuously to induce transgene expression and palpated weekly for tumor formation. […] A. Changes in tumor size from entry into study until end of study are shown for each individual tumor, (*) indicate tumors that entered the study at size greater than 500 mm^3, all other tumors entered the study at ˜100 mm^3. B. a Kaplan-Meier survival curve was generated showing when mice were sacrificed by either reaching tumor burden (2000 mm^3) or the end of the study (p=0.0002). C. Upon sacrifice tumors were harvested and fixed in 10% formalin and embedded in paraffin. Slides were stained with hematoxylin and eosin and imaged at 20×. D. Protein lysates were generated from tumors upon sacrifice and probed for the indicated proteins.
C. […] D. Cells were treated similarly as in C., fractionated and evaluated for protein localization by immunoblot.
Mice are continually bred to activate the pregnancy-dependent WAP promoter, which drives expression of the EGFR ligand Transforming Growth Factor alpha (TGFα) strictly to the mouse mammary glands. This model stochastically forms unifocal mammary adenocarcinomas through a process that begins with mammary hyperplasia, followed by tumor formation over approximately 8 months. […] No difference in weight or behavior or grooming was observed. Therefore 10 μg/g body weight was used for subsequent studies.
When tumors reached >100 mm^3, IV injections began at 3×/week, 10 μg/g body weight and tumors were measured 3×/week with calipers. Animals were injected for 4 weeks or until they reached maximal tumor burden, defined as a single tumor measuring 2000 mm^3. […] The WAP-TGFα is a spontaneous model in which each tumor arises and progresses in a heterogeneous fashion. Each tumor was evaluated separately to determine the overall impact of SNX1.3 treatment (FIG. 3A). […] In this study, mice were sacrificed after 4 weeks of injections or once they reached tumor burden, represented by the Kaplin-Meyer graph (FIG. 3B).

[7] = 10 μg/g IV 3×/week, first to last measurement

## CC[C@H](C)[C@H](NC(=O)[C@@H](NC(=O)[C@H](Cc1c[nH]cn1)NC(=O)[C@H](CC(N)=O)NC(=O)[C@H](CCCCN)NC(=O)[C@H](C)NC(=O)[C@H](CCCNC(=N)N)NC(=O)[C@H](C)NC(=O)[C@H](CCC(N)=O)NC(=O)[C@H](CCCNC(=N)N)NC(=O)[C@H](C)NC(=O)[C@H](C)NC(=O)[C@H](C)NC(=O)[C@H](CCCNC(=N)N)NC(=O)[C@H](C)NC(=O)[C@H](Cc1ccc(O)cc1)NC(C)=O)C(C)C)C(=O)N[C@@H](CCCCN)C(=O)N[C@@H](Cc1ccc(O)cc1)C(=O)N[C@@H](CC(C)C)C(=O)N[C@@H](CCC(=O)O)C(=O)N[C@H](C(=O)N[C@@H](CC(C)C)C(=O)N[C@@H](CC(C)C)C(=O)N[C@@H](Cc1ccc(O)cc1)C(=O)N[C@@H](CO)C(=O)N[C@@H](CCC(N)=O)C(=O)N[C@@H](CCC(N)=O)C(=O)N[C@@H](CCC(N)=O)C(=O)N[C@@H](CC(C)C)C(=O)N[C@@H](C)C(=O)N[C@@H](CCCCN)C(=O)N[C@@H](Cc1ccc(O)cc1)C(=O)N[C@@H](Cc1c[nH]c2ccccc12)C(=O)N[C@@H](CCC(=O)O)C(=O)N[C@@H](C)C(=O)N[C@@H](Cc1ccccc1)C(=O)N[C@@H](CC(C)C)C(N)=O)[C@@H](C)O [cSNX1.3]
[1]; NanoString
  expression of TLR1, TLR7, TLR8, TLR9, IRF5 and IRF8: increased expression
[1]; NanoString bioinformatics, compared to PTD4, six tumors each
  Cytotoxic T lymphocytes (CTLs) in tumors: increase
[1]; NanoString, compared to PTD4 control
  NK cells in tumor samples: increase
[2]
  IL1RL1 expression: upregulated
[3]
  IC50: 25 µM
[3]; BT20, 3 days, MTT assay
  inhibition of cell survival, compared with Sapitinib: more effective than Sapitinib
[4]
  efficacy in cells with reduced EGFR: lacked significant efficacy
[5]
  effect on CHO cells: No effect
[6]; 10 μg/g IV 3×/week, 4 weeks, p=0.0002 between groups
  mice that reached maximal tumor burden (2000 mm^3) before the end of the study: 1/6
[6]; [7]
  tumors that regressed: 7/11
  tumors with no change in tumor volume: 2/11
[6]; 10 μg/g IV 3×/week, the growing cSNX1.3 tumors entered at greater than 500 mm^3
  tumors that grew through the study: 2
[6]; 10 μg/g body weight IV 3×/week, 4 weeks or until tumor burden, n=11 tumors
  average tumor regression: 4 mm^3/day
[6]; measured with calipers, confirmed during necropsy
  tumors fully regressed: 3
[6]; weighed throughout the study, 10 μg/g IV 3×/week
  impact on animal weight: no impact
